Experimental data as given in US7166472B2, “Method for the identification of agents that inhibit or promote cataracts and uses thereof” (The General Hospital Corporation, priority 2000, dated 2007).

What was measured:
αB-crystallin = target: T1, αB-crystallin (Bos taurus, UniProt P02510); assay: αB-crystallin cross-linking in total calf lens protein (Western blot); settings: metabolite 10 μM, five days 37° C. dark
T1 sequence (P02510 1-175): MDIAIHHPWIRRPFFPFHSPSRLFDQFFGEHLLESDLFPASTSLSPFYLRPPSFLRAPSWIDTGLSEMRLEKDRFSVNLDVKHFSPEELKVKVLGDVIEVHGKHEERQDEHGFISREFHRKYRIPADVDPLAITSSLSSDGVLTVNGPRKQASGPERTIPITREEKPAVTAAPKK

[1] = Superoxide assay (dihydroethidium fluorometric); assay type: biochemical; settings: test compound 10 μM
Procedure: Superoxide Assay—The fluorometric assay for superoxide is based upon the dihydroethidium (DHE, HYDROETHDNE™) method (Molecular Probes, Eugene, Oreg.) and used according to the manufacturer's instructions. DHE (1 mM) was freshly prepared in 100% argon-sparged DMSO. The reaction solutions were carried out in PBS, pH 7.4, under ambient gas conditions, in 96-well format plates and contained a test compound (KYN, 3-HK, 3-HAA, and ANA, each at 10 μM), DHE (100 μM), +/− Cu(II)-glycine (1 μM) and incubated at 37EC for 60 minutes. […] Abolition of the reading by co-incubation with superoxide dismutase (1000 U/ml) was used for establishing superoxide specificity. The fluorescent readings were recorded by a Packard FLUOROCOUNT™ fluorescent plate reader with a 510 nm excitation filter and 590 nm emission filter. Potassium superoxide dissolved in degassed DMSO was used as a positive control.

[2] = Hydrogen peroxide assay (DCF fluorometric); assay type: biochemical; settings: reacting with Cu(II), 37° C., dark
[3] = Metal reduction assay, Cu(II) to Cu(I) (BC/BCA indicator); assay type: biochemical; settings: test compound 10 μM, Cu(II)-glycine 25 μM, PBS pH 7.4, 37° C., dark, one hour
[4] = Cyclic voltammetry of kynurenine metabolites with Cu(II); assay type: physicochemical; settings: metabolite 100 μM, cupric chloride 25 μM, PBS pH 7.4
Procedure: Cyclic Voltammetry—Cyclic voltammetry was performed at room temperature (22±2° C.) on ambient solutions using an EG&G PAR potentiostat, Model 273. The potentiostat was operated in Ramp Mode, generating a potential staircase waveform with a 0.25 mV step height. The potential window of +0.15 to −0.4V, in which Cu(I) is electroactive, but the metabolites are not, was scanned in both directions at a rate of 100 mV/sec. The current response was passed through a 5.3 Hz low pass filter. A minimum of three cycles were collected for each scan, ensuring the stability of the electrochemical response. The electrochemical cell consisted of an indium/tin oxide working electrode (Delta Technologies) with an active area of 0.32 cm^2, a platinum wire auxiliary electrode, and a Ag/AgCl (1 M KCl) reference electrode (Microelectrodes Inc.). Both the auxiliary and reference electrodes were positioned in the cell in close proximity to the working electrode. The working electrodes were pretreated with successive 10 minute sonications in Alconox (˜8 g/L), 95% ethanol, Milli-Q purified H2O (2×), and PBS (pH 7.4), followed by an overnight soak in PBS (pH 7.4). The ITO electrodes were subsequently “activated” immediately prior to use by successive cycling in PBS for three cycles in each of the following potential windows: +0.15 ? −0.4 V, +0.4 ? −0.4 V, and +1.0 ? −0.4 V. Cupric chloride (25 μM; Allied Chemical) was used as the Cu(II) source. Background voltammograms were obtained on each new electrode before testing the kynurenine pathway metabolites. PBS solutions of KYN, 3-HK, ANA, and 3-HAA (each at 100 μM) were separately scanned with and without added Cu(II) (25 μM). Each experiment also included a scan of Cu(II) (25 μM) in PBS without added test compound. All solutions were tested within minutes of being prepared. Each test was repeated to ensure the reproducibility of the results.
The voltammograms in FIGS. 3A–3D compare 3-HK and 3-HAA to their corresponding non-phenolic analogs, kynurenine (KYN) and anthranilic acid (ANA), in aqueous solutions of Cu(II) at pH 7.4. […] At potentials above +0.15 V, the metabolites undergo direct irreversible oxidation, a reaction that is not considered further here. Cyclic voltammetry of Cu(II) in PBS yielded a current response at ≈−100 mV due to reduction of the metal ion (scan “b” in each panel).

α-crystallin = target: T2, α-crystallin (Bos taurus, UniProt P02470+P02510); assay: α-Crystallin modification under longwave ultraviolet illumination; assay type: biochemical; settings: exposure of α-crystallin in the presence of longwave ultraviolet illumination
T2 sequence (P02470 1-173): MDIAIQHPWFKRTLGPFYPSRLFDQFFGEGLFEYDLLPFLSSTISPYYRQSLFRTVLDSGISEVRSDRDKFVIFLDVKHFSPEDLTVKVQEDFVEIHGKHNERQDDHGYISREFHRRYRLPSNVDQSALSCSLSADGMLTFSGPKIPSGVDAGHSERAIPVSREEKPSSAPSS
T2 sequence (P02510 1-175): T1 sequence (P02510 1-175)

[5] = Thiobarbituric acid-reactive substance (TBARS) assay for hydroxyl radical; assay type: biochemical; settings: reaction with Cu(II)
Text: Although two Fenton chemistry substrates, hydrogen peroxide and reduced redox-active metal, are produced by 3-HK and 3-HAA, evidence of the hydroxyl radical was not detected using the thiobarbituric acid-reactive substance assay (Huang, X. et al., Biochem. 38:7609–7616 (1999)) (data not shown).

Question: For `Nc1c(O)cccc1C(=O)CC(N)C(=O)O` (stereo not drawn) [3-HK, 3-hydroxykynurenine], which “αB-crystallin cross-linking in the presence of Cu(II)” value (αB-crystallin; Cu(II) 10 μM) is on record?
Answer: dramatically enhanced

Question: What about the αB-crystallin cross-linking (αB-crystallin; no added Cu(II)) of the same compound?
Answer: apparent dimers and higher order oligomers were observed

Question: What about the “effect of Cu(II) on superoxide generation” value ([1]; Cu(II)-glycine 1 μM) of the same compound?
Answer: did not promote

Question: And the superoxide production ([1]; ambient oxygen, dark, 60 minutes)?
Answer: negligible

Question: What about the “time dependence of hydrogen peroxide generation” value [2] of the same compound?
Answer: continuous over five hours

Question: And the “reduction of Cu(II)” value [3]?
Answer: 100%

Question: What about the “Cu(II) reduction wave in presence of metabolite” value [4] of the same compound?
Answer: nearly abolished

Question: And the “capacity of altered α-crystallin to reduce metal and generate hydrogen peroxide” value (α-crystallin)?
Answer: dramatically enhanced capacity

Question: And the “evidence of the hydroxyl radical” value [5]?
Answer: not detected
